Numbered stars: 1 amine (or outer) side, 2 acyl side, 3 side chain; on linkers, the order of the positions; unused ones are H or OH. Square brackets hold non-standard residues; d marks the D form. Side chains are listed from the residue outwards. Peptide text beside a SMILES is read from it. * marks the point of attachment. Decanoyl(10-(4-HOOC-PhO)) = O=C(O)c1ccc(OCCCCCCCCCC(=O)*)cc1; γGlu = O=C(O)[C@H](CCC(=O)[*:2])N[*:1]; C14 diacid = O=C(O)CCCCCCCCCCCCC(=O)*; AEEA = NCCOCCOCC(=O)O; Aib = CC(C)(N)C(=O)O
What was measured:
[1] = Pharmacokinetics in rat: half-life after i.v. administration; format: in vivo; settings: plasma, iv, 6 nmol/kg, male Sprague Dawley rats, approximately 4 rats per group, read-out: t½/h (half-life in rat) (converted)
Procedure: In vivo pharmacokinetic studies in rats were performed with the GLP-1 derivatives of Examples 2, 10, 17-18, and 31, as described in the following. Semaglutide was included for comparison.
Male Sprague Dawley rats of same age with a body weight of approximately 400 g were obtained from Taconic (Denmark) and assigned to the treatments by simple randomisation on body weight, approximately 4 rats per group, so that all animals in each group were of similar body weight.
The GLP-1 derivatives (approximately 6 nmol/ml) were dissolved in 50 mM sodium phosphate, 145 mM sodium chloride, 0.05% tween 80, pH 7.4. Intravenous injections (1.0 ml/kg) of the compounds were given through a catheter implanted in the right jugular vein. Blood was sampled from vena sublingualis for 5 days post dosing. Blood samples (200 μl) were collected in EDTA buffer (8 mM) and then centrifuged at 4° C. and 10000 G for 5 minutes. Plasma samples were kept at −20° C. until analyzed for plasma concentration of the respective GLP-1 compound.
The plasma concentrations of the GLP-1 compounds were determined using a Luminescence Oxygen Channeling Immunoasssay (LOCI), generally as described for the determination of insulin by Poulsen and Jensen in Journal of Biomolecular Screening 2007, vol. 12, p. 240-247. The donor beads were coated with streptavidin, while acceptor beads were conjugated with a monoclonal antibody recognising a mid-/C-terminal epitope of the peptide. Another monoclonal antibody, specific for the N-terminus, was biotinylated. The three reactants were combined with the analyte and formed a two-sited immuno-complex. Illumination of the complex released singlet oxygen atoms from the donor beads, which were channeled into the acceptor beads and triggered chemiluminescence which was measured in an Envision plate reader. The amount of light was proportional to the concentration of the compound.
Plasma concentration-time profiles were analyzed using Phoenix WinNonLin ver. 6.2, Pharsight Inc., Mountain View, Calif., USA), and the half-life (T1/2) calculated using individual plasma concentration-time profiles from each animal.

[2] = Estimate of oral bioavailability: gut injection in rat (caprate), exposure in plasma; format: in vivo; settings: injection in jejunum, 1000 uM in 55 mg/ml sodium caprate, plasma concentration (pM) at 30 min divided by dosing solution concentration (μM), mean n=4
Procedure, shortened: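 Male Sprague Dawley rats (~240 g, n=4) received 100 μl of 1000 uM derivative in 55 mg/ml sodium caprate by catheter into proximal or mid jejunum. Tail-vein EDTA plasma was sampled up to 240 min. Peptide was quantified by two-antibody bead chemiluminescence immunoassay, giving mean concentration-time profiles (pmol/l).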

[3] = Half-life in minipigs after i.v. administration; format: in vivo; settings: minipig, plasma, iv, male Göttingen minipigs, read-out: terminal half-life (converted)
Text: By terminal half-life is generally meant the period of time it takes to halve a certain plasma concentration, measured after the initial distribution phase.

human GLP-1 receptor = molecular target: T1, human GLP-1 receptor (Homo sapiens, UniProt P43220); experiment: GLP-1 receptor binding: displacement of 125I-GLP-1 (SPA) at low and high albumin; settings: 2.0% HSA vs 0.001% HSA
T1 construct: expressed in transfected cells; membranes
Procedure, shortened: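 Membranes from hamster cells stably transfected with the receptor, with WGA SPA beads and 0.06 nM [^125I]-GLP-1(7-36)NH2, incubated 120 min at 30 °C with shaking.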

T1 sequence (P43220 24-463): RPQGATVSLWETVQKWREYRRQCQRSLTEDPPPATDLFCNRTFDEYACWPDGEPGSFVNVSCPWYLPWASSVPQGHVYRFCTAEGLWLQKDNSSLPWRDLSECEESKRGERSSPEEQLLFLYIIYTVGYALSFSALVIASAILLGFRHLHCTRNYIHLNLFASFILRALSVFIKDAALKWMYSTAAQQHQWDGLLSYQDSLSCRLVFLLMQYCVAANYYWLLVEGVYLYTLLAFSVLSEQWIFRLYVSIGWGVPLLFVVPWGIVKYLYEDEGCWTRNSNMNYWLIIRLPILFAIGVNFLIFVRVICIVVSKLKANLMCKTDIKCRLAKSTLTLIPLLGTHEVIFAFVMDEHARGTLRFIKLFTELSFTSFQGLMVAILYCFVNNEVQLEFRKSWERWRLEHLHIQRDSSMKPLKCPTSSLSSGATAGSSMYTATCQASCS

Row | Structure (SMILES) | half-life [1] [h] | Dose-corrected exposure at 30 min [2] | half-life [3] [h] | Ratio [(IC50/nM) high HSA]/[(IC50/nM) low HSA] (human GLP-1 receptor)
1 | CC[C@H](C)[C@H](NC(=O)[C@H](Cc1ccccc1)NC(=O)[C@H](CCCCNC(=O)COCCOCCNC(=O)COCCOCCNC(=O)CC[C@H](NC(=O)CCCCCCCCCOc1ccc(C(=O)O)cc1)C(=O)O)NC(=O)[C@H](CCCNC(=N)N)NC(=O)[C@H](C)NC(=O)[C@H](C)NC(=O)[C@H](CCC(N)=O)NC(=O)[C@H](CCC(=O)O)NC(=O)[C@H](CCC(=O)O)NC(=O)[C@H](CC(C)C)NC(=O)[C@H](Cc1ccc(O)cc1)NC(=O)[C@H](CO)NC(=O)[C@H](CO)NC(=O)[C@@H](NC(=O)[C@H](CC(=O)O)NC(=O)[C@H](CO)NC(=O)[C@@H](NC(=O)[C@H](Cc1ccccc1)NC(=O)[C@@H](NC(=O)CNC(=O)[C@H](CCC(=O)O)NC(=O)[C@H](C)NC(=O)[C@@H](N)Cc1c[nH]cn1)[C@@H](C)O)[C@@H](C)O)C(C)C)C(=O)N[C@@H](CCC(=O)O)C(=O)N[C@@H](Cc1c[nH]c2ccccc12)C(=O)N[C@@H](CC(C)C)C(=O)N[C@H](C(=O)N[C@@H](CCCNC(=N)N)C(=O)NCC(=O)N[C@@H](CCCCNC(=O)COCCOCCNC(=O)COCCOCCNC(=O)CC[C@H](NC(=O)CCCCCCCCCOc1ccc(C(=O)O)cc1)C(=O)O)C(=O)NCC(=O)N[C@@H](CCC(=O)O)C(=O)NCC(=O)O)C(C)C [Example 2, N^ε27-[2-[2-[2-[[2-[2-[2-[[(4S)-4-carboxy-4-[10-(4-carboxyphenoxy)decanoylamino]butanoyl]amino]ethoxy]ethoxy]acetyl]amino]ethoxy]ethoxy]acetyl], N^ε36-[2-[2-[2-[[2-[2-[2-[[(4S)-4-carboxy-4-[10-(4-carboxyphenoxy)decanoylamino]butanoyl]amino]ethoxy]ethoxy]acetyl]amino]ethoxy]ethoxy]acetyl]-[Glu^22,Arg^26,Lys^27,Glu^30,Arg^34,Lys^36]-GLP-1-(7-37)-peptidyl-Glu-Gly] (H-HAEGTFTSDVSSYLEEQAARK([AEEA-AEEA-γGlu-Decanoyl(10-(4-HOOC-PhO))])FIEWLVRGK([AEEA-AEEA-γGlu-Decanoyl(10-(4-HOOC-PhO))])GEG-OH; N-terminus and C-terminus assumed) | 26 | 98 | 87 | –
2 | CC[C@H](C)[C@H](NC(=O)[C@H](Cc1ccccc1)NC(=O)[C@H](CCCCNC(=O)COCCOCCNC(=O)COCCOCCNC(=O)CC[C@H](NC(=O)CCCCCCCCCOc1ccc(C(=O)O)cc1)C(=O)O)NC(=O)[C@H](Cc1c[nH]cn1)NC(=O)[C@H](C)NC(=O)[C@H](C)NC(=O)[C@H](CCC(N)=O)NC(=O)CNC(=O)[C@H](CCC(=O)O)NC(=O)[C@H](CC(C)C)NC(=O)[C@H](Cc1ccc(O)cc1)NC(=O)[C@H](CO)NC(=O)[C@H](CO)NC(=O)[C@@H](NC(=O)[C@H](CC(=O)O)NC(=O)[C@H](CO)NC(=O)[C@@H](NC(=O)[C@H](Cc1ccccc1)NC(=O)[C@@H](NC(=O)CNC(=O)[C@H](CCC(=O)O)NC(=O)[C@H](C)NC(=O)[C@@H](N)Cc1c[nH]cn1)[C@@H](C)O)[C@@H](C)O)C(C)C)C(=O)N[C@@H](CCC(=O)O)C(=O)N[C@@H](Cc1c[nH]c2ccccc12)C(=O)N[C@@H](CC(C)C)C(=O)N[C@H](C(=O)N[C@@H](CCCNC(=N)N)C(=O)NCC(=O)N[C@@H](CCCCNC(=O)COCCOCCNC(=O)COCCOCCNC(=O)CC[C@H](NC(=O)CCCCCCCCCOc1ccc(C(=O)O)cc1)C(=O)O)C(=O)NCC(=O)N[C@@H](CCC(=O)O)C(=O)O)C(C)C [Example 10, N^ε27-[2-[2-[2-[[2-[2-[2-[[(4S)-4-carboxy-4-[10-(4-carboxyphenoxy)decanoylamino]butanoyl]amino]ethoxy]ethoxy]acetyl]amino]ethoxy]ethoxy]acetyl], N^ε36-[2-[2-[2-[[2-[2-[2-[[(4S)-4-carboxy-4-[10-(4-carboxyphenoxy)decanoylamino]butanoyl]amino]ethoxy]ethoxy]acetyl]amino]ethoxy]ethoxy]acetyl]-[His^26,Lys^27,Glu^30,Arg^34,Lys^36]-GLP-1-(7-37)-peptidyl-Glu] (H-HAEGTFTSDVSSYLEGQAAHK([AEEA-AEEA-γGlu-Decanoyl(10-(4-HOOC-PhO))])FIEWLVRGK([AEEA-AEEA-γGlu-Decanoyl(10-(4-HOOC-PhO))])GE-OH; N-terminus and C-terminus assumed) | 23 | 187 | – | –
3 | CC[C@H](C)[C@H](NC(=O)[C@H](Cc1ccccc1)NC(=O)[C@H](CCCCNC(=O)COCCOCCNC(=O)COCCOCCNC(=O)CC[C@H](NC(=O)CCCCCCCCCCCCC(=O)O)C(=O)O)NC(=O)[C@H](CCCNC(=N)N)NC(=O)[C@@H](NC(=O)[C@H](C)NC(=O)[C@H](CCC(=O)O)NC(=O)[C@H](CCC(=O)O)NC(=O)[C@H](CCC(=O)O)NC(=O)[C@H](CC(C)C)NC(=O)[C@H](Cc1ccc(O)cc1)NC(=O)[C@H](CO)NC(=O)[C@H](CO)NC(=O)[C@@H](NC(=O)[C@H](CC(=O)O)NC(=O)[C@H](CO)NC(=O)[C@@H](NC(=O)[C@H](Cc1ccccc1)NC(=O)[C@@H](NC(=O)CNC(=O)[C@H](CCC(=O)O)NC(=O)[C@H](C)NC(=O)[C@@H](N)Cc1c[nH]cn1)[C@@H](C)O)[C@@H](C)O)C(C)C)C(C)C)C(=O)N[C@@H](C)C(=O)N[C@@H](Cc1c[nH]cn1)C(=O)N[C@@H](CC(C)C)C(=O)N[C@H](C(=O)N[C@@H](CCC(N)=O)C(=O)NCC(=O)N[C@@H](CCCNC(=N)N)C(=O)N[C@@H](CCCCNC(=O)COCCOCCNC(=O)COCCOCCNC(=O)CC[C@H](NC(=O)CCCCCCCCCCCCC(=O)O)C(=O)O)C(=O)O)C(C)C [Example 17, N^ε27-[2-[2-[2-[[2-[2-[2-[[(4S)-4-carboxy-4-(13-carboxytridecanoylamino)butanoyl]amino]ethoxy]ethoxy]acetyl]amino]ethoxy]ethoxy]acetyl], N^ε37-[2-[2-[2-[[2-[2-[2-[[(4S)-4-carboxy-4-(13-carboxytridecanoylamino)butanoyl]amino]ethoxy]ethoxy]acetyl]amino]ethoxy]ethoxy]acetyl]-[Glu^22,Glu^23,Val^25,Arg^26,Lys^27,His^31,Gln^34,Lys^37]-GLP-1-(7-37)-peptide] (H-HAEGTFTSDVSSYLEEEAVRK([AEEA-AEEA-γGlu-C14 diacid])FIAHLVQGRK([AEEA-AEEA-γGlu-C14 diacid])-OH; N-terminus and C-terminus assumed) | 10 | 168 | – | –
4 | CC[C@H](C)[C@H](NC(=O)[C@H](Cc1ccccc1)NC(=O)[C@H](CCCCNC(=O)COCCOCCNC(=O)COCCOCCNC(=O)CC[C@H](NC(=O)CCCCCCCCCOc1ccc(C(=O)O)cc1)C(=O)O)NC(=O)[C@H](CCCNC(=N)N)NC(=O)[C@H](C)NC(=O)[C@H](C)NC(=O)[C@H](CCC(N)=O)NC(=O)[C@H](CCC(=O)O)NC(=O)[C@H](CCC(=O)O)NC(=O)[C@H](CC(C)C)NC(=O)[C@H](Cc1ccc(O)cc1)NC(=O)[C@H](CO)NC(=O)[C@H](CO)NC(=O)[C@@H](NC(=O)[C@H](CC(=O)O)NC(=O)[C@H](CO)NC(=O)[C@@H](NC(=O)[C@H](Cc1ccccc1)NC(=O)[C@@H](NC(=O)CNC(=O)[C@H](CCC(=O)O)NC(=O)C(C)(C)NC(=O)[C@@H](N)Cc1c[nH]cn1)[C@@H](C)O)[C@@H](C)O)C(C)C)C(=O)N[C@@H](CCC(=O)O)C(=O)N[C@@H](Cc1c[nH]c2ccccc12)C(=O)N[C@@H](CC(C)C)C(=O)N[C@H](C(=O)N[C@@H](CCCNC(=N)N)C(=O)NCC(=O)N[C@@H](CCCCNC(=O)COCCOCCNC(=O)COCCOCCNC(=O)CC[C@H](NC(=O)CCCCCCCCCOc1ccc(C(=O)O)cc1)C(=O)O)C(=O)NCC(=O)N[C@@H](CCC(=O)O)C(=O)NCC(=O)O)C(C)C [Example 31, N^ε27-[2-[2-[2-[[2-[2-[2-[[(4S)-4-carboxy-4-[10-(4-carboxyphenoxy)decanoylamino]butanoyl]amino]ethoxy]ethoxy]acetyl]amino]ethoxy]ethoxy]acetyl], N^ε36-[2-[2-[2-[[2-[2-[2-[[(4S)-4-carboxy-4-[10-(4-carboxyphenoxy)decanoylamino]butanoyl]amino]ethoxy]ethoxy]acetyl]amino]ethoxy]ethoxy]acetyl]-[Aib^8,Glu^22,Arg^26,Lys^27,Glu^30,Arg^34,Lys^36]-GLP-1-(7-37)-peptidyl-Glu-Gly] (H-H[Aib]EGTFTSDVSSYLEEQAARK([AEEA-AEEA-γGlu-Decanoyl(10-(4-HOOC-PhO))])FIEWLVRGK([AEEA-AEEA-γGlu-Decanoyl(10-(4-HOOC-PhO))])GEG-OH; N-terminus and C-terminus assumed) | 19 | – | – | 629
